In PubChem BioAssay (NCI) one finds GI50 and TGI data, which are given here for 28 molecules.

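These data come from cells grown in 96-well plates and exposed to compound for 48 hours at five concentrations. GI50 is the concentration that inhibits growth by half. TGI denotes the concentration required for complete inhibition of growth.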

Test systems include MDA-MB-435; XF 498 CNS; SNB-78 CNS; HOP-18 NSCLC; DLD-1 colon; KM20L2 colon; M19-MEL melanoma; MDA-N.
What all share (assay): NCI anticancer screen, dose series, 48 h

For the molecule `N#C/C(=C/N1CCN(C(=O)c2ccco2)C1=S)C(=O)c1ccccc1`, in the assay with MDA-MB-435, the GI50 is 11 µM and the TGI turned out to be 60.6 µM.

In the case of `COC(=O)/C(C#N)=C1\CCC(O)N1` (configuration not stated), the TGI in the assay on XF 498 CNS, in the assay on SNB-78 CNS, in the assay on HOP-18 NSCLC, in the assay with DLD-1 colon, in the assay on KM20L2 colon and in the assay with M19-MEL melanoma was over 100 µM throughout.

Consider `Cc1c(C2=C(Br)C(=O)N(C)C2=O)c(=O)n(C)c(=O)n1C`, for which the TGI is 58.6 µM with MDA-MB-435 and 77.8 µM in the assay with MDA-N.

For the molecule `O=C(COc1ccc(/C=C2\CSc3ccccc3C2=O)cc1)Nc1nccs1`, in the assay on MDA-MB-435, the GI50 was 3.31 µM and the TGI is 15.1 µM.

With `N#CC(=NCCO)C1=C(O)c2ccccc2C1=O`, the TGI with MDA-MB-435 and in the assay on MDA-N was over 100 µM throughout.

In the case of `CC(=O)c1sc(-c2nc(C)c(C(=O)/C=C\c3ccc(/C=C\C(=O)c4sc(-c5nc(C)c(C(C)=O)s5)nc4C)cc3)s2)nc1C`, the TGI in the assay with XF 498 CNS, with SNB-78 CNS, with HOP-18 NSCLC, in the assay with DLD-1 colon, with KM20L2 colon and with M19-MEL melanoma was over 100 µM in each case.

Regarding `O=C(Cc1ccccc1)NN1C(=O)C(Cl)C1c1ccc(O)cc1` (configuration not stated), the TGI with HOP-18 NSCLC, in the assay on DLD-1 colon, with KM20L2 colon and with M19-MEL melanoma was over 100 µM each time.

Take `O=C1Nc2c(ccc(Cl)c2I)C1=O`: the TGI is 29.9 µM in the assay on XF 498 CNS, 35.3 µM in the assay with DLD-1 colon, over 100 µM in the assay with KM20L2 colon and 24.1 µM in the assay on M19-MEL melanoma.

Take `COc1ccc(C(=O)COc2cccc(/C=C3\Oc4ccc5ccccc5c4C3=O)c2)cc1`: in the assay with MDA-MB-435, the GI50 is 5.24 µM and the TGI worked out at 20 µM.

For `Cc1cc(S(=O)(=O)N/N=C(\Sc2cc(Cl)c(C)cc2S(N)(=O)=O)c2ccc(Cl)cc2)c(Cl)cc1Cl`, in the assay with MDA-MB-435, the GI50 was over 100 µM and the TGI is over 100 µM.

Regarding `COc1cc2c3c(n(CCCN(C)C)c(=O)c2cc1OC)-c1ccccc1C3=O`, in the assay with MDA-MB-435, the GI50 was 19.1 µM and the TGI was over 100 µM.

As to `Cc1cc(NS(=O)(=O)c2ccc(Nc3c4ccccc4nc4c(C(=O)NCCN(C)C)cccc34)cc2)no1`, the TGI with XF 498 CNS was over 100 µM; in the assay on SNB-78 CNS it was 80.4 µM; in the assay with DLD-1 colon it was over 100 µM; with KM20L2 colon it was over 100 µM; in the assay on M19-MEL melanoma, over 100 µM.

Consider `CC(C)S(=O)(=O)c1ccccc1Nc1nc(Nc2cccc(NC(=O)CN)c2)ncc1Cl`, for which, in the assay on MDA-MB-435, the GI50 is 0.553 µM and the TGI amounted to 2.16 µM.

As for `CCc1ccccc1NC(=O)c1sc2nc3c(cc2c1N)C(=O)CCC3`, in the assay with MDA-MB-435, the GI50 is 0.0598 µM and the TGI was determined as 0.336 µM.

As for `O=C(/C=C/c1cc(CN2CCOCC2)c(O)c2ncccc12)c1cc(CN2CCOCC2)c(O)c2ncccc12`, in the assay with MDA-MB-435, the GI50 was under 0.0211 µM and the TGI was over 100 µM.

With `COC(=O)N/N=C(\C)C(CN1CCCCC1)C(C1=C(O)c2ccccc2OC1)c1ccccc1` (configuration not stated), the TGI in the assay on XF 498 CNS, in the assay on SNB-78 CNS, with HOP-18 NSCLC, with DLD-1 colon, in the assay with KM20L2 colon and with M19-MEL melanoma was over 100 µM each time.

Turning to `O=C1CC2C(=O)N(Cc3ccccc3)C1C=C2S(=O)(=O)c1ccccc1` (configuration not stated), the TGI in the assay with XF 498 CNS, in the assay with SNB-78 CNS, in the assay on HOP-18 NSCLC, in the assay with DLD-1 colon, with KM20L2 colon and in the assay on M19-MEL melanoma was over 100 µM each time.

For the molecule `O=c1[nH]cnc2cccc(Cl)c12`, the TGI with MDA-N was over 100 µM.

In the case of `Cc1cn2c(/C=C3\C(=O)N(C)c4ccc(O)cc43)c(C)nc2s1`, in the assay with MDA-MB-435, the GI50 is 1.19 µM and the TGI was 3.92 µM.

As for `COc1ccc2c(c1)[C@@]13CCCC[C@H]1[C@@H](C2)N(C)CC3=O`, the TGI in the assay with MDA-MB-435 came out at 42.7 µM; with MDA-N, 28.9 µM.

Consider `COc1ccc2[nH]c3c4c(ccc3c2c1)C(=O)C=CC4=O`, for which the TGI was found to be 37.1 µM in the assay on SNB-78 CNS; 22.7 µM in the assay with HOP-18 NSCLC; 8.78 µM with DLD-1 colon; 66.5 µM in the assay on MDA-MB-435; 43.1 µM in the assay on KM20L2 colon; 29.7 µM in the assay with MDA-N. Further, in the assay on M19-MEL melanoma, the TGI came out at 32.7 µM.

On to `COc1ccc(-c2c[nH]c(=S)n2-c2ccc(OC)cc2)cc1`, for which, in the assay on MDA-MB-435, the GI50 was over 50 µM and the TGI is over 50 µM.

As to `CCCCC1(CN2CCOCC2)S/C(=N/c2nc(CC(=O)OCC)cs2)NC1=O` (configuration not stated), in the assay with MDA-MB-435, the GI50 is 30.3 µM and the TGI is over 100 µM.

Consider `O=C(Nc1ccc(-n2cc(-c3ccncc3)c(-c3ccc(Cl)c(O)c3)n2)cc1)Nc1ccc(Cl)c(C(F)(F)F)c1`, for which, in the assay with MDA-MB-435, the GI50 is 1.32 µM and the TGI was determined as 2.91 µM.

For the molecule `C[C@]12CC[C@@H]3c4ccc(O)cc4CC[C@H]3[C@@H]1CC[C@@H]2NS(=O)(=O)c1cccc(F)c1`, in the assay on MDA-MB-435, the GI50 is 2.58 µM and the TGI was 8.77 µM.

As for `COC(=O)/C(C)=C/[N+](=O)[O-]`, the TGI is 27.5 µM in the assay on XF 498 CNS; 49.8 µM in the assay with SNB-78 CNS; 31.9 µM in the assay with HOP-18 NSCLC; 4.16 µM in the assay with DLD-1 colon; 55.5 µM in the assay with KM20L2 colon; 32.6 µM in the assay on M19-MEL melanoma.

As for `CC(C)OC(=O)NNc1cc(Cl)ccc1Cl`, the TGI with MDA-MB-435 and with MDA-N was over 100 µM each time.

Regarding `CN(CCCNC(=O)Cc1ccc2ccc3cccc4ccc1c2c34)CCCNc1cc(-c2ccc3ccccc3c2)nc2ccccc12`, in the assay on MDA-MB-435, the GI50 is 1.44 µM and the TGI amounted to 3.05 µM.
